This passage reports RP-LC retention time results from the METLIN SMRT retention time set (Domingo-Almenara et al. 2019).

This series is described as follows: gradient 5% acetonitrile 3 min, to 50% in 2 min, to 85% in 15 min, held 3 min, 100 µL/min. The settings on record: column: Zorbax Extend-C18 2.1 x 50 mm; eluents: water / acetonitrile, 0.1% formic acid. An outline of the steps: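 Using water and acetonitrile that each contained 0.1% formic acid, mixtures of ~100 pure standards were separated at 100 μL/min on a Zorbax Extend-C18 column (2.1 × 50 mm, 1.8 μm). The HPLC fed a quadrupole time-of-flight mass spectrometer working in positive and negative ionization mode, with dead and dwell volumes of 40 μL and 900 μL. Data were acquired over 3 months. Retention time was read from computationally picked adduct peaks after manual inspection of each.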
The compound `CNC(=O)c1cn2ccnc(-c3ccc(OC)cc3)c2n1` had an RP-LC retention time of 711 s.

`O=C(Nc1ccc(F)c(F)c1)c1cccn1Cc1noc(-c2ccccc2)n1`: the RP-LC retention time is 1100 s.

On to `COCc1ncc(C)n1C1CCN(C(=O)c2ccc(Cc3c(C)noc3C)o2)C1` (stereo not given), for which the RP-LC retention time was found to be 602 s.

Compound `COc1nn(C)cc1C(=O)Nc1ccc(Cl)c(Cl)c1` displayed an RP-LC retention time of 864 s. For `Cc1oc(-c2ccc(NC(=O)c3ccsc3)cc2)nc1Cn1cccn1` the value was 823 s.

As for `O=C(c1ccc2c(c1)OCO2)N1CC(F)(F)C[C@H]1COc1ccncc1`, the RP-LC retention time was determined as 615 s. For `CN(CC1CCOCC1)C(=O)Cc1ccccc1` the value was 695 s. `CC(C)CNC(=O)CC1=C2CCCCC2NC1=O` (stereo not given): the RP-LC retention time came out at 644 s. As for `Cc1nc(-c2ccc(C(=O)NC3CCCC3)cc2)cs1`, the RP-LC retention time amounted to 825 s.

In the case of `O=C(Nc1cccc2ccc(-n3ccnc3)nc12)c1ccc2c(c1)OCO2`, the RP-LC retention time is 620 s. Compound `COc1ccc(-c2cn3c(CC(=O)Nc4ccccc4C(F)(F)F)csc3n2)cc1OC` showed an RP-LC retention time of 755 s. For the compound `Cc1cc(=O)n(CC(=O)NCc2ccc(F)cc2F)c(N2CCCCC2)n1`, the RP-LC retention time came out at 657 s.

The compound `Cc1ccc(F)cc1S(=O)(=O)N1CCC(n2cnnc2C2CC2)CC1` returned an RP-LC retention time of 734 s.

`Cc1nc(C2CCOCC2)n(C2CCN(S(=O)(=O)c3c(C)c(C)cc(C)c3C)C2)n1` (stereo not given) gave an RP-LC retention time of 874 s. Compound `CCOc1ccccc1C1C(C#N)=C(N)Oc2cc(C)n(CCN(C)C)c(=O)c21` (stereo not given) registered an RP-LC retention time of 597 s. For the compound `CC(C)CN1CCN(C(=O)CCC2CCCN(c3cc(NC4CC4)ncn3)C2)CC1` (stereo not given), the RP-LC retention time stood at 547 s. `CCc1noc(CC2CCOC3(CCN(S(=O)(=O)c4c(C)cc(C)cc4C)CC3)C2)n1` (stereo not given) had an RP-LC retention time of 1190 s.

`CCCN(CC1CCOC1)C(=O)NCc1ccc(C)cc1` (stereo not given) showed an RP-LC retention time of 796 s.

`CC(C)c1cc(C(=O)Nc2cccc(Cl)c2)nn1C1CCS(=O)(=O)C1` (stereo not given) showed an RP-LC retention time of 994 s. `CCCn1ccc2oc(C)c(C(=O)N3CCN(CC(C)C)CC3)c2c1=O` registered an RP-LC retention time of 575 s. Consider `O=S(=O)(C1CC1)N1CCCCC1c1nncn1CC1CC1` (stereo not given), for which the RP-LC retention time was 578 s. The compound `Cc1cccc(NC(=O)C2CC(=O)N(c3n[nH]c4cccc(F)c34)C2)c1` (stereo not given) came in with an RP-LC retention time of 759 s. `CCc1ccc(NC(=O)Cc2nnc3cc(-c4nc(CC)no4)ccn23)cc1` yielded an RP-LC retention time of 826 s. In turn, `COc1ccc(CNC(=O)c2nnc(-c3ccc(S(=O)(=O)N(C)C)cc3)o2)c(OC)c1` came in with an RP-LC retention time of 865 s. Regarding `CCn1nccc1C(=O)N1CCc2c(-c3ccc(OC)cc3)cccc2[C@H]1C`, the RP-LC retention time is 1040 s. Compound `CCC(C)NC(=O)c1cccc(C)c1` (stereo not given) returned an RP-LC retention time of 847 s.

Regarding `O=C(NCC1CCCO1)C(=O)NCC(c1cccs1)S(=O)(=O)c1ccc(F)cc1` (stereo not given), the RP-LC retention time came to 749 s. Consider `O=C(Nc1ccc2c(c1)OCCO2)C1CCCN(S(=O)(=O)c2c[nH]c(C(=O)N3CCCC3)c2)C1` (stereo not given), for which the RP-LC retention time is 756 s. On to `N#Cc1ccc(C(=O)N2CCCC2c2nc(-c3cccc(C(F)(F)F)c3)no2)cc1` (stereo not given), for which the RP-LC retention time was 1060 s.

Compound `Cc1ccc(CNC(=O)N(C)CCc2noc(COc3cccc(C)c3)n2)cc1` yielded an RP-LC retention time of 956 s. Take `COc1cc(OC)c(NC(=O)Cn2nc3c(cc2=O)CCCC3)cc1Cl`: the RP-LC retention time came out at 719 s. As for `O=C(NC1CCCC1)c1c[nH]c2ncccc12`, the RP-LC retention time was 625 s. The compound `Cc1ccccc1-c1noc(-c2nnn3c2COC(c2ccc(F)cc2)C3)n1` (stereo not given) registered an RP-LC retention time of 1000 s. `CCc1nn2c(CNS(=O)(=O)c3ccc4c(c3)CCC4)c(-c3ccccc3)nc2s1` came in with an RP-LC retention time of 1020 s.

Regarding `O=c1c2cc3c(cc2nc(SCc2nc(-c4ccc(F)cc4)no2)n1CC1CCCO1)OCO3` (stereo not given), the RP-LC retention time is 1130 s.

`Cc1cccc(NC(=O)C2CCCN(S(=O)(=O)c3cc(-c4noc(C5CCC5)n4)cs3)C2)c1` (stereo not given) returned an RP-LC retention time of 1130 s. `CCNc1cc(N2CCC(CCC(=O)N3CCN(C(C)=O)CC3)CC2)ncn1` yielded an RP-LC retention time of 562 s. In turn, `CC1Oc2ccc(-c3csc(NC(=O)c4ccccc4)n3)cc2NC1=O` (stereo not given) gave an RP-LC retention time of 862 s. With `CCOc1ccccc1C(=O)N1CCN(c2nnc(SCC(=O)NC(C)C)s2)CC1` the figure was 673 s; with `COCC(C)(O)CNC(=O)C(=O)Nc1ccccc1C#N` (stereo not given), 629 s; with `COCCNC(=O)C(C)n1nc(C)c2c(C)n(-c3ccccc3)nc2c1=O` (stereo not given), 695 s. `O=C1COc2ccc(Cl)cc2N1Cc1nc(-c2ccc(N3CCOCC3)cc2)no1`: the RP-LC retention time was 1000 s.

On to `Cc1nc(N2CCN(c3ncccn3)CC2)nc2c1C(=O)CC(c1ccccc1O)C2` (stereo not given), for which the RP-LC retention time amounted to 969 s. As for `COc1cc(NC(=O)N2CCC(C)(C(=O)NCc3ccc(C)cc3)CC2)cc(OC)c1OC`, the RP-LC retention time stood at 765 s. Compound `COc1ccc(-c2cnc(NC(=O)[C@H]3CCCCN3S(=O)(=O)c3ccc(C)cc3)s2)cc1` registered an RP-LC retention time of 1270 s.

Consider `O=C(CCn1cnc2cc(-c3noc(Cc4cccs4)n3)ccc21)N1CCCC1`, for which the RP-LC retention time was determined as 691 s.

Compound `Cn1ncc2c(N3CCSCC3)nc(C(=O)NCCc3ccc(Cl)cc3)nc21` returned an RP-LC retention time of 913 s. On to `CCOc1ccc(-n2c(N(CC)CC)nc3cc(C(=O)OC)ccc3c2=O)cc1`, for which the RP-LC retention time came out at 1230 s. On to `Cc1cc(C)cc(NC(=O)CN2CCN(Cc3ccccc3)C(=O)C2=O)c1`, for which the RP-LC retention time turned out to be 782 s.

`O=C(Cc1ccccc1)Nc1c(C(=O)N2CCN(c3ccccn3)CC2)oc2ccccc12`: the RP-LC retention time turned out to be 673 s.

`Cc1ccc(C2c3[nH]c4ccccc4c3CCN2C(=O)C2CC2)cc1` (stereo not given) registered an RP-LC retention time of 1110 s. The compound `Cc1cccc(N(C)C(=O)CN2C(=O)NC3(CCCCC3)C2=O)c1` returned an RP-LC retention time of 784 s. For `CCOC(=O)c1c(S(=O)(=O)N2CCC(C(=O)Nc3ccc(OC)cc3)CC2)c(C)n(C)c1C` the value was 804 s; for `CN(C)c1ccc(C(CNC(=O)C(=O)Nc2ccc(F)c(Cl)c2)N2CCCC2)cc1` (stereo not given), 613 s. For `O=C(NCCCn1nc(-c2ccc(F)cc2)ccc1=O)Nc1cc(Cl)ccc1Cl` the value was 566 s; for `CCCc1noc(-c2ccc3nnc(CC(=O)Nc4ccc(C)cc4C)n3c2)n1`, 926 s; for `O=C(NCc1ccccc1F)c1ccc2c(c1)CN(C1CCSCC1)CCO2`, 584 s. As for `Cc1oc(-c2[nH]ncc2C(=O)N(C)C)cc1S(=O)(=O)Nc1ccc(F)cc1`, the RP-LC retention time worked out at 670 s. `COc1c(Sc2ccc([N+](=O)[O-])cc2)c(C)nn1-c1ccccc1` yielded an RP-LC retention time of 1130 s. With `O=C(Nc1ncn[nH]1)c1ccccc1`, the RP-LC retention time was 646 s.
